For one experiment, the target named is T1, P2X3 (UniProt P56373).
T1 sequence (P56373 1-397): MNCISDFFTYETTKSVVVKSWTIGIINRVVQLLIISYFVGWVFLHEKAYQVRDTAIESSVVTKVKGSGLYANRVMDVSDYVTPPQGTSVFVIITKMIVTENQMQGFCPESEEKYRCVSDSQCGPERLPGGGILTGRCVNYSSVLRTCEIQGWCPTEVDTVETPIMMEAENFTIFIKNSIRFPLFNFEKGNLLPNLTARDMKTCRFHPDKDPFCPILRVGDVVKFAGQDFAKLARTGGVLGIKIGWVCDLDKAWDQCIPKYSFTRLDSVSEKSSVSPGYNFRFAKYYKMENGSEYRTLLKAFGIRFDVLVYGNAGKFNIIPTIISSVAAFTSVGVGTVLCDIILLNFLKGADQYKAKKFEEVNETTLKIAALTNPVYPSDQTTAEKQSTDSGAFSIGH
Nature of the experiment: P2X3 FLIPR intracellular calcium assay. The format is cell-based. The note with it: agonist at EC75, species (human or rat) not given. From the text:
The FLIPR® assay utilizes cells which express human or rat P2X3 or P2X2/3 receptors. […] The PCR product obtained containing the protein coding sequence of rat P2X2 was cloned into EcoRV-digested and dephosphorylated vector pIRES-puro3 within the multiple cloning site (MCS). See, FIG. 1A.
Rat P2X3 (NCBI Accession No: X91167) was amplified by PCR from rat brain cDNA. The PCR product obtained containing the protein coding sequence of rat P2X3 was cloned into EcoRV-digested and dephosphorylated vector pCDNA-Hygro within the multiple cloning site (MCS) (FIG. 1B). Rat P2X3 cloned into pcDNA-Hygro was then subcloned into pcDNA-5/TO at HindIII (5′) and XhoI (3′) sites within the multiple cloning site (MCS) of the vector (FIG. 1C).
(§1) Transfection was carried out using super-coiled constructs (purified using QIAGEN kit) in antibiotic free, serum free DMEM using Lipofectamine® 2000 (Invitrogen) transfection agent. The DNA constructs rat P2X2 in pIRES-Puro3 and rat P2X3 in pCDNA5/TO were co-transfected into TRex293 cells in order to generate the rP2X2/3 stable line. 50 μg/mL hygromycin (Invitrogen) and 0.5 μg/mL puromycin (Fermentek) were used for selection of stable clones of rP2X2/3. Rat P2X3 in pCDNA5/TO DNA construct was transfected to CHO-TRex cells to generate the rP2×3 stable line and 500 μg/mL hygromycin (Invitrogen) was used as selection antibiotic. Transfected stable colonies were then functionally verified and robust clones suitable for assay were clonally purified through dilutions.
(§2) Cryo-vial containing 6×10^6 cells (human P2X3-HEK/human P2X2/3-TRex293/rat P2X2/3-TRex293/rat P2X3 TRex-CHO) was thawed in a 37° C. water bath. Cells were suspended in 20 mL of respective cell plating media (See annexure for composition) in a 50 mL centrifuge tube. The cell viability was checked with the help of Trypan Blue dye. Upon washing, cells were plated in a black 384-well clear bottomed, sterile poly-D-lysine coated plate such that, each well contained 10,000 cells (15,000/well for hP2X3) in 30 μL cell plating media. The plate was incubated in a 5% CO2 incubator at 37° C. for 24 h.
(§3) The next day, prior to the assay, the cell plating media was removed from each well by decanting and gentle tapping. Thirty μL of FLIPR Calcium 4 dye solution was added to each well. The plate was incubated at 37° C. for 45 min (60 min for hP2X3). The plate was next equilibrated at room temperature for 15 minutes before placing it in a 384 well FLIPR for the assay.
Dilutions were mixed with assay buffer just before performing the assay.
(§4) Compounds were added to the respective wells of the assay-ready cell plate with the help of the FLIPR and fluorescence readings were captured for 5 min to observe any possible agonistic property of the compounds. The plate was then incubated at room temperature for 15 min. The cells were stimulated with respective agonist EC75 concentration and the fluorescence readings were captured for another 5 min by FLIPR. The difference in fluorescence readings in presence of the compounds were compared with that of the control wells (wells having no compound) to calculate the inhibitory potency of the compounds. The IC50 values of the compounds were determined using the Graph pad Prism software.
(vi) Dye Solution Composition • 1×FLIPR Calcium 4 dye in assay buffer (Molecular devices Cat# R8141) • 1.8 mM Probenecid (Sigma Cat# P8761) • pH adjusted to 7.4
In general terms: A change in cytosolic calcium serves as a functional read-out for many receptors and channels.

Another experiment concerns the target T2, P2X2/3 (Homo sapiens, UniProt P56373+Q9UBL9).
T2 sequence (Q9UBL9 1-471): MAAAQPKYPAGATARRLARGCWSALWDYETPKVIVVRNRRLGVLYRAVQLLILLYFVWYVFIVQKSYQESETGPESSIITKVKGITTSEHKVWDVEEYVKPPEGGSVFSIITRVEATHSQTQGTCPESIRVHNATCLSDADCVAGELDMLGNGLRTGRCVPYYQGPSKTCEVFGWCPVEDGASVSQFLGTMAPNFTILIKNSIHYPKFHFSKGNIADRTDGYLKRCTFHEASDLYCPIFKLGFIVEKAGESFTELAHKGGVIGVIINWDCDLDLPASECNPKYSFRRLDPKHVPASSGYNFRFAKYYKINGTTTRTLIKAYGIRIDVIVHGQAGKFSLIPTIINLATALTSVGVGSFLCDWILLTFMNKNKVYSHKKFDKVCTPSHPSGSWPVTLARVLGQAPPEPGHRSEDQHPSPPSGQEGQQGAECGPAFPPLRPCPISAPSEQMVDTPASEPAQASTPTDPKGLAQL
T2 sequence (P56373 1-397): T1 sequence (P56373 1-397)
Nature of the experiment: P2X2/3 FLIPR intracellular calcium assay. The experiment is classed as cell-based. The note with it: agonist at EC75, species (human or rat) not given.
Excerpt: The FLIPR® assay utilizes cells which express human or rat P2X3 or P2X2/3 receptors. Recombinant cells expressing hP2X3 (Cat#6188) and hP2X2/3 (Cat#6179) were procured from Chantest Corp. Rat P2X2 (NCBI Accession No: U14414) was amplified by PCR from PC12 cDNA (a rat adrenal medulla cell line). The PCR product obtained containing the protein coding sequence of rat P2X2 was cloned into EcoRV-digested and dephosphorylated vector pIRES-puro3 within the multiple cloning site (MCS). See, FIG. 1A.
as §1, §2, §3
Compounds were dissolved in DMSO and serially diluted following 11 point half log (3.16 fold) dilution with a starting concentration of 2 mM. Dilutions were mixed with assay buffer just before performing the assay.
as §4
(ii) Cell Plating Media for hP2X3-HEK and hP2X2/3-TRex293 Cells • DMEM/F12 (1:1) HAM media (Invitrogen; Cat#11039) • 1×NEAA (Invitrogen; Cat#11140) • 25 mM HEPES (Invitrogen; Cat#15630) • 1 mM sodium pyruvate (Invitrogen; Cat#11360) • 10% tetracycline negative FBS (PAA; Cat# A15-209) • 1 μg/mL doxycycline (Clontech; Cat#63131) [for hP2X2/3-TRex293 cells only]
(iii) Cell Plating Media for rP2X2/3-TRex293 Cells • DMEM media (Invitrogen; Cat#11965) • 25 mM HEPES (Invitrogen; Cat#15630) • 10% tetracycline negative FBS (PAA; Cat# A15-209) • 1 μg/mL Doxycycline (Clontech; Cat#63131)
(v) Assay Buffer Composition • HBSS (Invitrogen Cat#14025) • 20 mM HEPES (Invitrogen Cat#15630) • 0.01% F127 (Sigma Cat# P2443) • 1.8 mM CaCl2 (Sigma Cat# C5080) • pH adjusted to 7.4 […]

The structures appear in SMILES notation.

As for `Cc1ccc(CNC(=O)c2cc(-n3nncc3C(F)F)c3ncc(-c4ncc(C)s4)n3c2)cn1` [Example 36], the IC50 on P2X3 and on P2X2/3 was 1 to 100 nM each time.
In the case of `Cc1ccc(-c2cnc3c(-n4nncc4C(C)C)cc(C(=O)N[C@@H](C)c4nnc[nH]4)cn23)s1` [Example 37], the IC50 at P2X3 and at P2X2/3 was 1 to 100 nM in each case.
`Cc1ncc(CNC(=O)c2cc(-n3nncc3C(F)(F)F)c3ncc(-c4ccc(C)s4)n3c2)cn1` [Example 39]: the IC50 at P2X3 and at P2X2/3 was 1 to 100 nM throughout.
For the compound `Cc1ncc(CNC(=O)c2cc(-n3nncc3C(C)C)c3ncc(-c4ccc(C)s4)n3c2)cn1` [Example 40], the IC50 (in general, the midpoint of a concentration-inhibition curve) on P2X3 was over 10000 nM; at P2X2/3, 1 to 100 nM.
As to `Cc1ncc(CNC(=O)c2cc(-n3nncc3C3CC3)c3ncc(-c4ccc(C)s4)n3c2)cn1` [Example 41], the IC50 on P2X3 and on P2X2/3 was 1 to 100 nM throughout.
For `COc1ncc(CNC(=O)c2cc(-n3nncc3C3CC3)c3ncc(-c4ccc(C)s4)n3c2)cn1` [Example 42], the IC50 at P2X3 and on P2X2/3 was 1 to 100 nM each time.
As for `Cc1ccc(-c2cnc3c(-n4nncc4C4CCC4)cc(C(=O)N[C@@H](C)c4nnc[nH]4)cn23)s1` [Example 43], the IC50 at P2X3 and on P2X2/3 was 1 to 100 nM in each case.
In the case of `COc1ncc(CNC(=O)c2cc(-n3nncc3C(F)(F)F)c3ncc(-c4ccc(C)s4)n3c2)cn1` [Example 44], the IC50 at P2X3 and on P2X2/3 was 1 to 100 nM each time.
Turning to `Cc1ccc(CNC(=O)c2cc(-n3nncc3C(C)C)c3ncc(-c4ccc(C)s4)n3c2)cn1` [Example 45], the IC50 is over 10000 nM on P2X3 and 1 to 100 nM at P2X2/3.
In the same order, the values of `Cc1ccc(-c2cnc3c(-n4nncc4C(C)(C)C)cc(C(=O)N[C@@H](C)c4nnc[nH]4)cn23)s1` [Example 46] are 1 to 100 nM and 1 to 100 nM.
Take `Cc1ncc(CNC(=O)c2cc(-n3nncc3C(F)F)c3ncc(-c4ncc(C)s4)n3c2)cn1` [Example 47]: the IC50 at P2X3 and on P2X2/3 was 1 to 100 nM in each case.
Take `Cc1ccc(CNC(=O)c2cc(-n3nncc3C(F)F)c3ncc(-c4ccc(C)o4)n3c2)cn1` [Example 48]: the IC50 at P2X3 and on P2X2/3 was 1 to 100 nM in each case.
In the case of `Cc1ncc(CNC(=O)c2cc(-n3nncc3C3CCC3)c3ncc(-c4ccc(C)s4)n3c2)cn1` [Example 49], the IC50 at P2X3 is over 10000 nM; at P2X2/3 it was 1 to 100 nM.
With `C[C@H](NC(=O)c1cc(-n2nncc2C(F)F)c2ncc(-c3ccc(C#N)s3)n2c1)c1nnc[nH]1` [Example 51], the results for the 50% inhibitory concentration (IC50) on P2X3 and at P2X2/3 were 100 to 1000 nM and 1000 to 10000 nM, respectively.
In the case of `Cc1cnc(-c2cnc3c(-n4nncc4C(F)F)cc(C(=O)N[C@@H](C)c4nnc[nH]4)cn23)s1` [Example 53], the IC50 at P2X3 and on P2X2/3 was 1 to 100 nM in each case.
Take `Cc1ccc(-c2cnc3c(-n4nncc4C(F)F)cc(C(=O)N[C@H](c4nnc[nH]4)C(C)C)cn23)s1` [Example 54]: the IC50 on P2X3 and at P2X2/3 was 1 to 100 nM each time.
In the case of `Cc1ncc(CNC(=O)c2cc(-n3nncc3C3CCC3)c3ncc(-c4ncc(C)s4)n3c2)cn1` [Example 55], the figures for the IC50 at P2X3 and at P2X2/3 were over 10000 nM and 100 to 1000 nM, respectively.
For `Cc1ccc(CNC(=O)c2cc(-n3nncc3C(F)(F)F)c3ncc(-c4ncc(C)s4)n3c2)cn1` [Example 56] the same measures were 1 to 100 nM and 100 to 1000 nM.
As for `Cc1cnc(-c2cnc3c(-n4nncc4C(C)(C)C)cc(C(=O)N[C@@H](C)c4nnc[nH]4)cn23)s1` [Example 57], the IC50 lay within 1 to 100 nM on P2X3 and 100 to 1000 nM on P2X2/3.
Regarding `CCc1cnnn1-c1cc(C(=O)N[C@@H](CC)c2nnc[nH]2)cn2c(-c3ccc(C)s3)cnc12` [Example 58], the IC50 on P2X3 and at P2X2/3 was 1 to 100 nM each time.
Take `C[C@H](NC(=O)c1cc(-n2nncc2C(F)F)c2ncc(-c3ccc(C(F)(F)F)s3)n2c1)c1nnc[nH]1` [Example 59]: the IC50 at P2X3 lay within 100 to 1000 nM; on P2X2/3 it was 1000 to 10000 nM.
Consider `Cc1ccc(-c2cnc3c(-n4nncc4C(F)F)cc(C(=O)N[C@@H](C)c4nnc[nH]4)cn23)o1` [Example 60], for which the IC50 at P2X3 and at P2X2/3 was 1 to 100 nM each time.
As for `CC[C@H](NC(=O)c1cc(-n2nncc2C(C)C)c2ncc(-c3ccc(C)s3)n2c1)c1nnc[nH]1` [Example 61], the IC50 on P2X3 and on P2X2/3 was 1 to 100 nM in each case.
On to `CCc1cnnn1-c1cc(C(=O)N[C@@H](C)c2nnc[nH]2)cn2c(-c3ccc(C)o3)cnc12` [Example 62], for which the IC50 lay within 1 to 100 nM on P2X3 and 100 to 1000 nM on P2X2/3.
For `CCCc1cnnn1-c1cc(C(=O)N[C@@H](C)c2nnc[nH]2)cn2c(-c3ccc(C)s3)cnc12` [Example 63] the same measures were 1 to 100 nM and 1 to 100 nM.
On to `CCCc1cnnn1-c1cc(C(=O)NCc2cnc(C)nc2)cn2c(-c3ncc(C)s3)cnc12` [Example 64], for which the results for the IC50 at P2X3 and on P2X2/3 were 1 to 100 nM and 100 to 1000 nM, respectively.
As for `Cc1ncc(CNC(=O)c2cc(-n3nncc3C(F)F)c3ncc(-c4ccc(C)o4)n3c2)cn1` [Example 65], the IC50 at P2X3 and on P2X2/3 was 1 to 100 nM each time.

These data come from patent US10316039B2, “P2X3 and/or P2X2/3 compounds and methods” (Asana Biosciences, LLC, priority 2013, dated 2019).
